Earlier results as cited in patent US9320295B2, “Compositions containing non-polar compounds” (Virun, Inc., priority 2010, dated 2016).

Row | Substance | HLB value
1 | sucrose distearate | 3
2 | sucrose dipalmitate | 7.4
3 | sucrose monopalmitate | > 10
